In the NIST ThermoML archive (doi:10.1016/j.tca.2011.01.001):
Numbers after ± are expanded uncertainties.

What was measured:
[1] = Molar enthalpy of transition or fusion; conditions: Crystal; DSC
[2] = for Normal melting temperature: DTA

O=C(O)c1ccc(O)cc1O [2,4-dihydroxybenzoic acid]
Conditions | Molar enthalpy of transition or fusion [kcal/mol]
[1] | 7.41 ± 0.478

[2]
Conditions | vapor or sublimation pressure [kPa]
364.2 K, Crystal, Torsion effusion method | 6.2e-05 ± 3e-06
365.3 K, Crystal, Torsion effusion method | 7e-05 ± 4e-06
366.3 K, Crystal, Torsion effusion method | 8e-05 ± 4e-06
367.1 K, Crystal, Torsion effusion method | 8.9e-05 ± 5e-06
368.3 K, Crystal, Torsion effusion method | 0.000101 ± 5e-06
369.6 K, Crystal, Torsion effusion method | 0.000116 ± 6e-06
370.8 K, Crystal, Torsion effusion method | 0.000131 ± 7e-06
372.5 K, Crystal, Torsion effusion method | 0.000155 ± 8e-06
374.2 K, Crystal, Torsion effusion method | 0.000187 ± 9e-06
375.7 K, Crystal, Torsion effusion method | 0.000218 ± 1.1e-05
377.1 K, Crystal, Torsion effusion method | 0.000255 ± 1.3e-05
379 K, Crystal, Torsion effusion method | 0.000312 ± 1.6e-05
380.3 K, Crystal, Torsion effusion method | 0.000353 ± 1.8e-05
382.5 K, Crystal, Torsion effusion method | 0.000391 ± 2e-05
383 K, Crystal, Torsion effusion method | 0.000423 ± 2.1e-05
384.1 K, Crystal, Torsion effusion method | 0.000512 ± 2.6e-05
385.2 K, Crystal, Torsion effusion method | 0.000576 ± 2.9e-05
387.3 K, Crystal, Torsion effusion method | 0.000655 ± 3.3e-05
388.1 K, Crystal, Torsion effusion method | 0.000735 ± 3.7e-05
389.2 K, Crystal, Torsion effusion method | 0.000821 ± 4.1e-05
390.1 K, Crystal, Torsion effusion method | 0.000912 ± 4.6e-05
511.2 K, Liquid, Non-isothermal TG | 2.825 ± 0.6
511.7 K, Liquid, Non-isothermal TG | 2.896 ± 0.61
512.2 K, Liquid, Non-isothermal TG | 3.022 ± 0.62
512.7 K, Liquid, Non-isothermal TG | 3.073 ± 0.63
513.3 K, Liquid, Isothermal TG | 3.108 ± 0.64
513.8 K, Liquid, Isothermal TG | 3.111 ± 0.64
514.3 K, Liquid, Isothermal TG | 3.167 ± 0.66
514.8 K, Liquid, Non-isothermal TG | 3.343 ± 0.68
515.3 K, Liquid, Non-isothermal TG | 3.35 ± 0.68
515.8 K, Liquid, Non-isothermal TG | 3.458 ± 0.7
516.4 K, Liquid, Non-isothermal TG | 3.553 ± 0.73
516.9 K, Liquid, Isothermal TG | 3.606 ± 0.73
517.4 K, Liquid, Isothermal TG | 3.622 ± 0.74
517.9 K, Liquid, Isothermal TG | 3.638 ± 0.74
518.4 K, Liquid, Isothermal TG | 3.711 ± 0.76
518.9 K, Liquid, Non-isothermal TG | 3.901 ± 0.8
519.4 K, Liquid, Non-isothermal TG | 3.97 ± 0.81
519.9 K, Liquid, Non-isothermal TG | 4.016 ± 0.82
520.4 K, Liquid, Non-isothermal TG | 4.161 ± 0.84
520.9 K, Liquid, Isothermal TG | 4.222 ± 0.86
521.4 K, Liquid, Isothermal TG | 4.207 ± 0.86
521.9 K, Liquid, Isothermal TG | 4.223 ± 0.86
522.4 K, Liquid, Isothermal TG | 4.342 ± 0.89
522.9 K, Liquid, Non-isothermal TG | 4.463 ± 0.91
523.4 K, Liquid, Non-isothermal TG | 4.543 ± 0.92
523.9 K, Liquid, Non-isothermal TG | 4.649 ± 0.94
524.4 K, Liquid, Non-isothermal TG | 4.833 ± 0.98
525.4 K, Liquid, Isothermal TG | 4.975 ± 1
526.4 K, Liquid, Isothermal TG | 5.059 ± 1
526.9 K, Liquid, Isothermal TG | 5.093 ± 1
527.4 K, Liquid, Isothermal TG | 5.122 ± 1
528.4 K, Liquid, Non-isothermal TG | 5.41 ± 1.1
528.9 K, Liquid, Non-isothermal TG | 5.477 ± 1.1
529.4 K, Liquid, Non-isothermal TG | 5.483 ± 1.1
529.9 K, Liquid, Non-isothermal TG | 5.556 ± 1.1
530.4 K, Liquid, Isothermal TG | 5.598 ± 1.1
530.9 K, Liquid, Isothermal TG | 5.667 ± 1.1
531.5 K, Liquid, Isothermal TG | 5.675 ± 1.2
532 K, Liquid, Isothermal TG | 5.825 ± 1.2
532.5 K, Liquid, Non-isothermal TG | 5.928 ± 1.2
533 K, Liquid, Non-isothermal TG | 6.061 ± 1.2
533.5 K, Liquid, Isothermal TG | 6.226 ± 1.3
534 K, Liquid, Isothermal TG | 6.322 ± 1.3

Conditions | Normal melting temperature [°C]
[2], Crystal | 228.6 ± 0.5

O=C(O)c1c(O)cccc1O [2,6-dihydroxybenzoic acid]
Conditions | Molar enthalpy of transition or fusion [kcal/mol]
[1] | 5.98 ± 0.478

[2]
Conditions | vapor or sublimation pressure [kPa]
346 K, Crystal, Torsion effusion method | 9.9e-05 ± 5e-06
347 K, Crystal, Torsion effusion method | 0.000113 ± 6e-06
351.5 K, Crystal, Torsion effusion method | 0.00017 ± 9e-06
353.3 K, Crystal, Torsion effusion method | 0.000216 ± 1.1e-05
354 K, Crystal, Torsion effusion method | 0.000223 ± 1.1e-05
355 K, Crystal, Torsion effusion method | 0.000248 ± 1.2e-05
357 K, Crystal, Torsion effusion method | 0.000307 ± 1.5e-05
358 K, Crystal, Torsion effusion method | 0.000341 ± 1.7e-05
360.5 K, Crystal, Torsion effusion method | 0.000443 ± 2.2e-05
361 K, Crystal, Torsion effusion method | 0.000467 ± 2.4e-05
361.5 K, Crystal, Torsion effusion method | 0.000492 ± 2.5e-05
363 K, Crystal, Torsion effusion method | 0.000574 ± 2.9e-05
363.5 K, Crystal, Torsion effusion method | 0.000604 ± 3e-05
365 K, Crystal, Torsion effusion method | 0.000704 ± 3.5e-05
366 K, Crystal, Torsion effusion method | 0.000779 ± 3.9e-05
367 K, Crystal, Torsion effusion method | 0.000851 ± 4.3e-05
367.5 K, Crystal, Torsion effusion method | 0.0009 ± 4.5e-05
369 K, Crystal, Torsion effusion method | 0.001031 ± 5.2e-05
454.2 K, Liquid, Non-isothermal TG | 0.643 ± 0.14
454.7 K, Liquid, Non-isothermal TG | 0.681 ± 0.14
455.7 K, Liquid, Non-isothermal TG | 0.722 ± 0.15
456.7 K, Liquid, Non-isothermal TG | 0.754 ± 0.16
457.7 K, Liquid, Non-isothermal TG | 0.804 ± 0.17
458.7 K, Liquid, Isothermal TG | 0.809 ± 0.17
458.7 K, Liquid, Non-isothermal TG | 0.853 ± 0.18
459.1 K, Liquid, Isothermal TG | 0.829 ± 0.17
459.2 K, Liquid, Isothermal TG | 0.848 ± 0.17
459.7 K, Liquid, Non-isothermal TG | 0.904 ± 0.19
459.8 K, Liquid, Isothermal TG | 0.868 ± 0.18
460.2 K, Liquid, Isothermal TG | 0.887 ± 0.18
460.6 K, Liquid, Isothermal TG | 0.907 ± 0.19
460.7 K, Liquid, Isothermal TG | 0.928 ± 0.19
460.8 K, Liquid, Non-isothermal TG | 0.954 ± 0.2
461 K, Liquid, Isothermal TG | 0.928 ± 0.19
461.5 K, Liquid, Isothermal TG | 0.948 ± 0.2
461.8 K, Liquid, Non-isothermal TG | 1.006 ± 0.21
461.9 K, Liquid, Isothermal TG | 0.968 ± 0.2
462 K, Liquid, Isothermal TG | 0.979 ± 0.2
462.7 K, Liquid, Isothermal TG | 1 ± 0.21
462.7 K, Liquid, Non-isothermal TG | 1.056 ± 0.21
463.1 K, Liquid, Isothermal TG | 1.027 ± 0.21
463.5 K, Liquid, Isothermal TG | 1.048 ± 0.21
463.6 K, Liquid, Isothermal TG | 1.055 ± 0.22
463.8 K, Liquid, Non-isothermal TG | 1.077 ± 0.22
464.3 K, Liquid, Isothermal TG | 1.087 ± 0.22
464.7 K, Liquid, Isothermal TG | 1.108 ± 0.23
464.8 K, Liquid, Non-isothermal TG | 1.121 ± 0.23
465.1 K, Liquid, Isothermal TG | 1.113 ± 0.23
465.2 K, Liquid, Isothermal TG | 1.14 ± 0.23
465.8 K, Liquid, Non-isothermal TG | 1.175 ± 0.24
465.9 K, Liquid, Isothermal TG | 1.167 ± 0.24
466.3 K, Liquid, Isothermal TG | 1.187 ± 0.24
466.7 K, Liquid, Isothermal TG | 1.208 ± 0.25
466.8 K, Liquid, Isothermal TG | 1.227 ± 0.25
466.8 K, Liquid, Non-isothermal TG | 1.22 ± 0.25
467.5 K, Liquid, Isothermal TG | 1.248 ± 0.26
467.8 K, Liquid, Non-isothermal TG | 1.313 ± 0.27
467.9 K, Liquid, Isothermal TG | 1.267 ± 0.26
468.3 K, Liquid, Isothermal TG | 1.288 ± 0.26
468.4 K, Liquid, Isothermal TG | 1.307 ± 0.27
468.8 K, Liquid, Non-isothermal TG | 1.364 ± 0.28
469.1 K, Liquid, Isothermal TG | 1.328 ± 0.27
469.5 K, Liquid, Isothermal TG | 1.348 ± 0.28
469.8 K, Liquid, Non-isothermal TG | 1.412 ± 0.29
470 K, Liquid, Isothermal TG | 1.381 ± 0.28
470.1 K, Liquid, Isothermal TG | 1.389 ± 0.28
470.8 K, Liquid, Isothermal TG | 1.434 ± 0.29
470.8 K, Liquid, Non-isothermal TG | 1.464 ± 0.3
471.2 K, Liquid, Isothermal TG | 1.442 ± 0.3
471.6 K, Liquid, Isothermal TG | 1.472 ± 0.3
471.7 K, Liquid, Isothermal TG | 1.509 ± 0.31
471.7 K, Liquid, Non-isothermal TG | 1.51 ± 0.31
472.5 K, Liquid, Isothermal TG | 1.546 ± 0.32
472.7 K, Liquid, Non-isothermal TG | 1.557 ± 0.32
473.7 K, Liquid, Non-isothermal TG | 1.644 ± 0.34
474.8 K, Liquid, Non-isothermal TG | 1.761 ± 0.36
475.7 K, Liquid, Non-isothermal TG | 1.829 ± 0.38
476.7 K, Liquid, Non-isothermal TG | 1.847 ± 0.37

Conditions | Normal melting temperature [°C]
[2], Crystal | 170.6 ± 0.5
